According to patent publication US20130172378A1, “Combination of BRAF and VEGF Inhibitors” (GlaxoSmithKline LLC, priority 2010, published 2013):

Key:
Format in all cases: in vivo, CD-1 nude mice
[1] = Body weight of nude mice bearing A375P F11s xenografts during treatment; settings: in g (unit assumed)
Protocol: (§1) Female CD-1 nude mice of 6-8 weeks in age were used in these studies; all mice were obtained from Charles River Laboratories (Wilmington, Del.). Animals were housed in pathogen free conditions and handled with aseptic technique.
(§2) Mice with similar sized tumors (100-300 mm^3) were identified. The length and width of the tumors were measured by handheld calipers and body weights of the mice were measured using a bench top weighing scale. Tumor volumes were calculated based on the following formula: tumor volume=(Length×Width^2)/2. Mice were block randomized into the required number of dosing groups (n=8 mice/group). The randomization process ensured that the average tumor volume for each dosing group was approximately equal at the beginning of the study and mice with differing tumor volumes were evenly distributed. Mice were placed in groups of eight accordingly and dosed with either vehicle or compound for 36 days either once or twice daily, as summarised in the table below. Mice were weighed and tumors measured twice weekly for the duration of the study using Studylog animal study management software (Studylog Systems, Inc., South San Francisco, Calif., USA).

[2] = system: A375P F11s tumor xenografts (human melanoma, BRAF V600E); assay: A375P F11s melanoma tumor xenograft efficacy in nude mice
Protocol: as §1
The A375P F11s cell lines were grown in RPMI growth medium supplemented with 10% fetal bovine serum (FBS), 1% sodium pyruvate and 1% penicillin-streptomycin in a humidified 37° C. chamber with 5% CO2. Cells were expanded to obtain the large numbers of cells required for each injection; cells were grown in log phase, without reaching confluency and passaged regularly.
Detached cells were collected, centrifuged (1500 rpm, 5 min, 4° C.) and rinsed to remove the trypsin solution. Cells were re-suspended in PBS without magnesium or calcium and counted.
Compounds were administered in vehicles as described below.
as §2
Tumor volumes were calculated based on the following formula: tumor volume=(Length×Width^2)/2. Tumor growth curves were created from the mean±standard error of the mean, with n=8 animals per group. The percentage of tumor growth inhibition was calculated on the final day of dosing using the following formula: 1−(tumor volume in drug-treated population/tumor volume in vehicle-treated control population).

[3] = system: A375P F11s tumor xenografts (human melanoma, BRAF V600E); assay: as above; remark: listed apart in the source
[4] = group 3: Compound B 10 mg/kg PO QD, study day 7
[5] = group 4: Compound B 30 mg/kg PO QD, study day 3
[6] = group 4: Compound B 30 mg/kg PO QD, study day 9
[7] = group 4: Compound B 30 mg/kg PO QD, study day 22
[8] = group 4: Compound B 30 mg/kg PO QD, study day 25
[9] = group 4: Compound B 30 mg/kg PO QD, study day 35
[10] = group 3: Compound B 10 mg/kg PO QD, study day 0
[11] = group 3: Compound B 10 mg/kg PO QD, study day 3
[12] = group 3: Compound B 10 mg/kg PO QD, study day 9
[13] = group 3: Compound B 10 mg/kg PO QD, study day 15
[14] = group 3: Compound B 10 mg/kg PO QD, study day 18
[15] = group 3: Compound B 10 mg/kg PO QD, study day 22
[16] = group 3: Compound B 10 mg/kg PO QD, study day 25
[17] = group 3: Compound B 10 mg/kg PO QD, study day 28
[18] = group 3: Compound B 10 mg/kg PO QD, study day 31
[19] = group 4: Compound B 30 mg/kg PO QD, study day 0
[20] = group 4: Compound B 30 mg/kg PO QD, study day 7
[21] = group 4: Compound B 30 mg/kg PO QD, study day 15
[22] = group 4: Compound B 30 mg/kg PO QD, study day 18
[23] = group 4: Compound B 30 mg/kg PO QD, study day 28
[24] = group 4: Compound B 30 mg/kg PO QD, study day 31
[25] = group 4: Compound B 30 mg/kg PO QD, study day 37

Q: Which “Mean body weight of nude mice” value ([1]; group 2: Compound A 100 mg/kg PO BID, study day 0) does the source give for `Cc1ccc(Nc2nccc(N(C)c3ccc4c(C)n(C)nc4c3)n2)cc1S(N)(=O)=O` [Compound A, 5-[[4-[(2,3-dimethyl-2H-indazol-6-yl)methylamino]-2-pyrimidinyl]amino]-2-methylbenzenesulfonamide] here?
A: 24.98

Q: And the “Mean body weight of nude mice” value ([1]; group 2: Compound A 100 mg/kg PO BID, study day 3)?
A: 25.13

Q: And the “Mean body weight of nude mice” value ([1]; group 2: Compound A 100 mg/kg PO BID, study day 7)?
A: 25.63

Q: What about the “Mean body weight of nude mice” value ([1]; group 2: Compound A 100 mg/kg PO BID, study day 15) of the same compound?
A: 24.83

Q: And the “Mean body weight of nude mice” value ([1]; group 2: Compound A 100 mg/kg PO BID, study day 18)?
A: 25.35

Q: What about the “Mean body weight of nude mice” value ([1]; group 2: Compound A 100 mg/kg PO BID, study day 22) of the same compound?
A: 24.71

Q: What about the “Mean body weight of nude mice” value ([1]; group 2: Compound A 100 mg/kg PO BID, study day 25) of the same compound?
A: 24.79

Q: And the “Mean body weight of nude mice” value ([1]; group 2: Compound A 100 mg/kg PO BID, study day 28)?
A: 24.91

Q: And the “Mean body weight of nude mice” value ([1]; group 2: Compound A 100 mg/kg PO BID, study day 35)?
A: 24.95

Q: What about the “Mean body weight of nude mice” value ([1]; group 2: Compound A 100 mg/kg PO BID, study day 37) of the same compound?
A: 25.00

Q: For `CC(C)(C)c1nc(-c2cccc(NS(=O)(=O)c3c(F)cccc3F)c2F)c(-c2ccnc(N)n2)s1` [Compound B, N-{3-[5-(2-Amino-4-pyrimidinyl)-2-(1,1-dimethylethyl)-1,3-thiazol-4-yl]-2-fluorophenyl}-2,6-difluorobenzenesulfonamide], which “Mean A375P F11s tumor volume” value [2, 4] is on record?
A: 189.5 mm^3

Q: And the “Mean A375P F11s tumor volume” value [2, 5]?
A: 144.2 mm^3

Q: What about the “Mean A375P F11s tumor volume” value [2, 6] of the same compound?
A: 99.5 mm^3

Q: What about the “Mean A375P F11s tumor volume” value [2, 7] of the same compound?
A: 116.4 mm^3

Q: What about the “Mean A375P F11s tumor volume” value [2, 8] of the same compound?
A: 142.1 mm^3

Q: And the “Mean A375P F11s tumor volume” value [2, 9]?
A: 168.1 mm^3

Q: And the “Mean body weight of nude mice” value [1, 10]?
A: 25.71

Q: What about the “Mean body weight of nude mice” value [1, 11] of the same compound?
A: 26.14

Q: And the “Mean body weight of nude mice” value [1, 4]?
A: 26.13

Q: And the “Mean body weight of nude mice” value [1, 12]?
A: 26.29

Q: And the “Mean body weight of nude mice” value [1, 13]?
A: 25.69

Q: What about the “Mean body weight of nude mice” value [1, 14] of the same compound?
A: 26.44

Q: And the “Mean body weight of nude mice” value [1, 15]?
A: 26.00

Q: What about the “Mean body weight of nude mice” value [1, 16] of the same compound?
A: 26.45

Q: What about the “Mean body weight of nude mice” value [1, 17] of the same compound?
A: 26.55

Q: What about the “Mean body weight of nude mice” value [1, 18] of the same compound?
A: 27.11

Q: And the “Mean body weight of nude mice” value [1, 19]?
A: 25.49

Q: What about the “Mean body weight of nude mice” value [1, 5] of the same compound?
A: 25.38

Q: And the “Mean body weight of nude mice” value [1, 20]?
A: 25.15

Q: And the “Mean body weight of nude mice” value [1, 6]?
A: 25.35

Q: And the “Mean body weight of nude mice” value [1, 21]?
A: 24.46

Q: And the “Mean body weight of nude mice” value [1, 22]?
A: 24.84

Q: And the “Mean body weight of nude mice” value [1, 7]?
A: 24.67

Q: What about the “Mean body weight of nude mice” value [1, 8] of the same compound?
A: 24.87

Q: And the “Mean body weight of nude mice” value [1, 23]?
A: 24.79

Q: What about the “Mean body weight of nude mice” value [1, 24] of the same compound?
A: 24.83

Q: And the “Mean body weight of nude mice” value [1, 9]?
A: 24.41

Q: What about the “Mean body weight of nude mice” value [1, 25] of the same compound?
A: 24.65

Q: What about the “Mean A375P F11s tumor volume” value [3, 10] of the same compound?
A: 178.5 mm^3

Q: And the “Percent Inhibition of A375P F11s tumor volume compared to vehicle treated mice” value (“Percent Inhibition” below) [3, 10]?
A: −3.6%

Q: And the “Mean A375P F11s tumor volume” value [3, 11]?
A: 164.5 mm^3

Q: And the “Percent Inhibition” value [3, 11]?
A: 34.3%

Q: And the “Percent Inhibition” value [3, 4]?
A: 39.0%

Q: What about the “Mean A375P F11s tumor volume” value [3, 12] of the same compound?
A: 247.5 mm^3

Q: What about the “Percent Inhibition” value [3, 12] of the same compound?
A: 36.6%

Q: What about the “Mean A375P F11s tumor volume” value [3, 13] of the same compound?
A: 350.4 mm^3

Q: And the “Percent Inhibition” value [3, 13]?
A: 45.3%

Q: And the “Mean A375P F11s tumor volume” value [3, 14]?
A: 469.7 mm^3

Q: And the “Percent Inhibition” value [3, 14]?
A: 35.4%

Q: And the “Mean A375P F11s tumor volume” value [3, 15]?
A: 494.2 mm^3

Q: What about the “Percent Inhibition” value [3, 15] of the same compound?
A: 47.2%

Q: And the “Mean A375P F11s tumor volume” value [3, 16]?
A: 581.5 mm^3

Q: And the “Percent Inhibition” value [3, 16]?
A: 46.6%

Q: What about the “Mean A375P F11s tumor volume” value [3, 17] of the same compound?
A: 682.0 mm^3

Q: And the “Percent Inhibition” value [3, 17]?
A: 45.6%

Q: What about the “Mean A375P F11s tumor volume” value [3, 18] of the same compound?
A: 830.5 mm^3

Q: What about the “Mean A375P F11s tumor volume” value ([3]; group 3: Compound B 10 mg/kg PO QD, study day 35) of the same compound?
A: 1,105.5 mm^3

Q: And the “Mean A375P F11s tumor volume” value [3, 19]?
A: 156.9 mm^3

Q: What about the “Percent Inhibition” value [3, 19] of the same compound?
A: 8.9%

Q: What about the “Percent Inhibition” value [3, 5] of the same compound?
A: 42.4%

Q: What about the “Mean A375P F11s tumor volume” value [3, 20] of the same compound?
A: 104.1 mm^3

Q: What about the “Percent Inhibition” value [3, 20] of the same compound?
A: 66.5%

Q: What about the “Percent Inhibition” value [3, 6] of the same compound?
A: 74.5%

Q: And the “Mean A375P F11s tumor volume” value [3, 21]?
A: 94.0 mm^3

Q: What about the “Percent Inhibition” value [3, 21] of the same compound?
A: 85.3%

Q: What about the “Mean A375P F11s tumor volume” value [3, 22] of the same compound?
A: 104.4 mm^3

Q: What about the “Percent Inhibition” value [3, 22] of the same compound?
A: 85.6%

Q: And the “Percent Inhibition” value [3, 7]?
A: 87.6%

Q: And the “Percent Inhibition” value [3, 8]?
A: 87.0%

Q: And the “Mean A375P F11s tumor volume” value [3, 23]?
A: 148.7 mm^3

Q: What about the “Percent Inhibition” value [3, 23] of the same compound?
A: 88.1%

Q: What about the “Mean A375P F11s tumor volume” value [3, 24] of the same compound?
A: 166.1 mm^3

Q: And the “Mean A375P F11s tumor volume” value [3, 25]?
A: 207.6 mm^3
